Where two headings read alike, the source gives them in different places.

Data set [1] has as its system differentiated intestinal stem cells. Nature of the data set: Insulin-GFP reporter expression (FACS) in differentiated intestinal stem cells. As to conditions: for percentage of Insulin-GFP+ cells: further addition to 616452, day 5. In kind it is cell-based, mouse. The text has this: “Insulin Activity Assay” as used herein is an assay used to determine the extent to which insulin gene transcription, translation or insulin release has been activated in a cell population. In an exemplary Insulin Activity Assay, the initial cells are isolated from the intestine of an Insulin-GFP mouse such as […] mouse (also referred to as the MIT-GFP mouse, Jackson lab stock no.: 006864). Intestinal crypts are isolated from the proximal half of the intestine. […] The cells are then passaged for 1-2 times to create a starting cell population for the assay. To test the capacity of agents to activate insulin gene transcription, translation or insulin release, the cells are incubated with appropriate culture media (e.g. aforementioned crypt culture media), growth factors and/or other agents being tested. Appropriate culture media, including crypt culture media as well as the agents being assessed, are added into each well and incubated with the cells for a period of 2-10 days with media change every 2 days. The fraction of insulin-GFP positive cells (i.e., cells in which the insulin-GFP reporter is activated) can be quantified using a flow cytometer to measure the fraction of GFP+ cell population present in the total cell population. Also, the average insulin activity of a cell population can be measured by measuring the average mRNA expression level of insulin of the population normalized using suitable references or housekeeping genes (e.g., using mRNA expression of Hprt as a baseline).

Data set [2] has as its system differentiated cell colonies.
For data set [3], the system named is gastrointestinal stem cells. Kind of data set: Insulin / Nkx6.1 mRNA expression (qPCR), 3-stage conversion to insulin producing cells. Format: cell-based, mouse. The text has this: “mRNA Insulin Expression Assay” refers to an assay used to determine the relative insulin mRNA expression level of a cell population. For example, the assay can determine the insulin mRNA level expressed in a cell population treated to increase the expression of insulin in the cells, as compared to an untreated population of cells. In an exemplary mRNA Insulin Expression Assay, the cells were collected and the RNA is extracted from the cells using an RNA extraction kit (such as RNeasy Mini kit, Qiagen). The insulin expression level is then assessed by Quantitative real-time PCR using a one-step qPCR kit (such as QuantiTech Probe PCR kit, Qiagen) and Ins1 or Ins2 primers and probes (such as the commercially available TaqMan probe for mouse Ins1 and Ins2, Life Technologies). The relative insulin mRNA expression can be determined relative to a baseline or other marker, such as Hprt mRNA expression level or other baseline marker.
(§1) Organoids or differentiated cells were harvested and RNA was extracted using RNeasy Micro Kit (Qiagen) according to the manufacturer's instruction. Quantitative real-time PCR was performed with QuantiTect Probe PCR kit (Qiagen) using commercially available primers and TaqMan probes (Life Technologies).
Based on the protocol to convert gastrointestinal stem cells into insulin producing cells, a 3-stage process was developed, specifically, Day 0-1 as Stage 1, Day 1-3 as Stage 2, Day 3-5 as Stage 3. After Stage 3, the cells turn on significant level of Insulin expression as indicated by Ins-EGFP expression and qPCR for Insulin mRNA expression. Optionally, the cells can be further cultured for 1-2 weeks, as Stage 4. For each stage, a set of specific combination of small molecules (and/or growth factors) were added. The objective was to optimize the reprogramming protocol to increase insulin expression, specifically Insulin mRNA expression for each stage, by screening and testing new small molecules (or growth factors).

The subject of data set [4] is intestinal stem cells. Kind of data set: mRNA expression (qPCR) of ChgA and other lineage markers in differentiated intestinal stem cells. Format: cell-based, mouse. To be noted: for differentiation towards EEC (ChgA expression): added to Notch and EGFR/MEK/ERK inhibition combination without R-Spondin1; for ChgA expression of the differentiated cells: versus previous differentiation conditions (FIG. 21).
Text: “mRNA ChgA Expression Assay” refers to an assay used to determine the relative ChgA mRNA expression level in a cell population. For example, the assay can determine ChgA mRNA expression level of a differentiated cell population following treatment with agents being tested, as compared to an untested population of post-natal stem cells. In an example of an mRNA ChgA Expression Assay, the cells were collected and the RNA is extracted from the cells using an RNA extraction kit (such as RNeasy Mini kit, Qiagen). The ChgA expression level is then assessed by Quantitative real-time PCR using a one-step qPCR kit (such as QuantiTech Probe PCR kit, Qiagen) and ChgA primers and probes (such as commercially available Taqman probe for mouse ChgA, Life Technologies).
as §1
Cells were then cultured with EGF, Noggin, and DAPT (END), as well as small molecules. After 2-3 days of differentiation, the cells lysed and ChgA expression was measured by qRT-PCR.
Small molecules were further validated using a 24-well plate culture and the differentiation system. […] The expression of markers of secretory lineage cells including goblet cells (Muc2), enteroendocrine cells (ChgA), and Paneth cells (Lyz1) were measured.

The mark [5] stands for this setting: continuing culture of Islet-like Insulin expression cell colonies.

Take `Nc1ncn([C@@H]2O[C@H](CO)[C@@H](O)[C@H]2O)c(=O)n1` [5-Aza, 5-Azacytidine]: the “optimal concentration in inducing insulin-GFP expression” value in data set [1] (dose response, day 5) fell in the range of 0.5 to 1 µM. Moreover, the “percentage of Insulin-GFP+ cells” value in data set [1] is “subsequently increased”. In addition, in data set [2], the “cell death in the culture” value was “induced cell death”.

`Nc1ncn([C@H]2C[C@H](O)[C@@H](CO)O2)c(=O)n1` [5Aza, 5-aza-2′-deoxycytidine]: the “Insulin mRNA expression” value in data set [3] (treatment extended from Stage 1 only to Stage 1 and Stage 2) is “slightly increased”.

As to `COc1cc2ncnc(Nc3ccc(NC(=O)c4ccccc4)cc3)c2cc1OC` [Aurora Kinase Inhibitor II], the “Insulin mRNA expression” value in data set [3] (added in Stage 3) is reported as “increase”.

With `COC(=O)C1=C(C)NC(C)=C([N+](=O)[O-])C1c1ccccc1C(F)(F)F` (centres unmarked) [BayK 8644], the “stages of addition giving highest activity” value in data set [3] is on record as “highest activity when added in Stages 1-3”. Moreover, the “Insulin mRNA expression” value in data set [3] (added in Stage 1) is “increased”. Further, the “concentration of highest activity / optimal concentration in promoting Insulin expression” value in data set [3] (dose response) was determined as 2 µM. The effect of removal entry in data set [2] (setting [5]) is on record as “could be removed without much influence”.

Regarding `Cc1c[nH]c(-c2cnc(NCCNc3ccc(C#N)cn3)nc2-c2ccc(Cl)cc2Cl)n1` [CHIR99021, 6-[[2-[[4-(2,4-dichlorophenyl)-5-(5-methyl-1H-imidazol-2-yl)-2-pyrimidinyl]amino]ethyl]amino]-3-pyridinecarbonitrile], the “differentiation towards EEC (ChgA expression)” value in data set [4] was “did not further increase”. Moreover, the GFP expression entry in data set [1] (added in Step 1 to increase Wnt activation, 5 days) was “did not increase”. The “Insulin mRNA expression” value was “further increased” in data set [3] (Stage 3, combined with T3) and “greatly increased” in data set [3] (added in Stage 3).

Turning to `CC(C)Oc1ccc(-c2cnc3c(-c4ccnc5ccccc45)cnn3c2)cc1` [DMH-1], the “expression of Nkx6.1 and insulin” value in data set [3] (added in Stages 2-3) was “increased”. In addition, the effect of removal entry in data set [2] (setting [5]) is on record as “could be removed without much influence”.

For the compound `C=C[C@@]1(C)CC(=O)[C@]2(O)[C@@]3(C)[C@@H](O)CCC(C)(C)[C@@H]3[C@H](O)[C@H](OC(C)=O)[C@@]2(C)O1` [Forskolin], the cell survival result in data set [2] (50-100 μM, added in Stage 3) is “improved cell survival”; in data set [2] (setting [5]), “increased cell survival”.

For `O=C(O)c1ccc(O)c2ncccc12` [IOX1], the “Insulin and Nkx6.1 expression” value in data set [3] (used at 5-10 μM) is “increased”.

`O=C(NC1CC1)c1cc(-c2cccs2)on1` [ISX-9, N-cyclopropyl-5-(2-thienyl)-3-isoxazolecarboxamide]: the “expression of functional EEC markers such as Gip, Gcg, Cck, Pyy” value in data set [4] (relative to reference gene Hprt) is recorded as “decreased”. Besides, in data set [4], the “ChgA expression of the differentiated cells” value is on record as “further increased”. In data set [1] (added to the combination, 5 days in culture), the “number of GFP+ cells” value is on record as “further increase”. For the same compound, in data set [3] (dose response), the “optimal dose in promoting Insulin and Nkx6.1 expression” value is 10 to 20 µM.

Turning to `Cc1ccc2nc(NC(=O)CSc3nc4c(c(=O)n3-c3ccccc3)SCC4)sc2c1` [IWP 2], the “differentiation towards EEC (ChgA expression)” value in data set [4] is recorded as “did not further increase”.

For `CC(=O)N[C@@H](CS)C(=O)O` [N-Acetylcysteine], the “Insulin mRNA expression” value in data set [3] (Stage 3, combined with T3) was “further increased”; in data set [3] (added in Stage 3) it was “increased”.

`N[C@@H](Cc1cc(I)c(Oc2ccc(O)c(I)c2)c(I)c1)C(=O)O` [T3, Triiodothyronine]: the “Insulin mRNA expression” value in data set [3] (added in Stage 3) is listed as “greatly increased”.

Consider `O=C1O[C@H]([C@@H](O)CO)C(O)=C1O` [Vitamin C], for which the effect on conversion result in data set [3] (added in Stage 2-3) is “beneficial effects”. Also, in data set [3] (added in Stage 3), the “Insulin mRNA expression” value is given as “did not show such effect”.

`Cc1cc(-c2ccc(CC(=O)Nc3ccc(-c4cccnc4)cc3)cc2)ccn1` [Wnt-C59]: in data set [4] (added in step 2), the “Paneth cell marker Lyz1 expression” value is recorded as “effectively decreased”. The ChgA expression result in data set [4] (added in step 2 of 2-step protocol) is “further increased”; in data set [4] (delayed addition for 12-24 hours in step 2), “further increases”. For the same compound, in data set [4], the “ChgA expression of the differentiated cells” value is given as “further increased”. Further, the “percentage of Insulin-GFP+ cells” value in data set [1] is recorded as “subsequently increased”. The “Insulin mRNA expression” value in data set [3] (addition delayed for 12 hours in Stage 2) was “increased”. The optimal dose in promoting Insulin and Nkx6.1 expression in data set [3] (dose response (FIG. 52)) is 5 µM.

For EGF: epidermal growth factor, the “EEC marker (ChgA, Gip, Gcg, CCK) expression on removing EGF from the media” value in data set [4] (5 days) was “further increased”. Moreover, in data set [2] (EGF removed in both steps), the “dead cells in the lumen of the differentiated cell colony” value was “more dead cells”.

Consider “Exendin-4: factor identified to increase Insulin mRNA expression”, for which the “Insulin mRNA expression” value in data set [3] (added in Stage 3) was “increase”.

These data come from patent US11021687B2, “Production of differentiated enteroendocrine cells and insulin producing cells” (Massachusetts Institute of Technology, priority 2016, dated 2021).
